The values below come from paper PMC6214572, “Carboxypeptidase O is a lipid droplet-associated enzyme able to cleave both acidic and polar C-terminal amino acids” (PLoS ONE, 2018).

SMILES strings stand for the structures.

The assay addresses T1, Carboxypeptidase O (CPO) (Homo sapiens, UniProt Q8IVL8, W297L).
T1 construct: full-length GPI-anchored enzyme without prodomain, (plasmid pcDNA-CPO in HEK293T); Triton X-100 cell lysate
T1 sequence (Q8IVL8 21-352 W297L): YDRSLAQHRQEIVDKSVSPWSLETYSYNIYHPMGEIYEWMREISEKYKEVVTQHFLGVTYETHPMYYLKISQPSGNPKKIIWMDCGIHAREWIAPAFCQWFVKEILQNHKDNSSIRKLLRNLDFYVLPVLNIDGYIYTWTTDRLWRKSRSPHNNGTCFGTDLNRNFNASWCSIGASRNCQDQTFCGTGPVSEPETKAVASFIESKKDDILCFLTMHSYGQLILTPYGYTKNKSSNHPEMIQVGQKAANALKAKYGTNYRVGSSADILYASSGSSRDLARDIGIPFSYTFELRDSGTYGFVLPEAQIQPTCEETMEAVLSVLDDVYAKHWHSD
The assay can be described thus: absorbance decrease at […] nm after […] min. The class given is biochemical. Conditions: lysate of transfected HEK293T cells; 0.5 mM FA-EE, 37°C; inactive mutant.

Consider `O=C(O)CC[C@H](NC(=O)[C@H](CCC(=O)O)NC(=O)C=Cc1ccco1)C(=O)O` [FA-Glu-Glu], for which the no enzymatic activity result is on record as “The W297L CPO mutant exhibits no enzymatic activity, although fully expressed”.
